The assay deals with BaF3 V617F cells; UKE-1. The assay can be described thus: Proliferation Assay (Cell Titer-Glo; Example 7). Type of assay: cell-based. As to conditions: proliferation 72 hours, inhibit JAK2 activity, cell line (BaF3 V617F or UKE-1) not stated. The procedure, abridged:
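Proliferation IC50s reflect 72 h compound exposure at 37 °C, read by Cell Titer-Glo luminescence. Compound was serially diluted 3-fold from a 5 mM DMSO stock and added as a 2× solution; BaF3 V617F cells were grown in RPMI/10% FBS, UKE-1 in Iscove's DMEM with FBS, equine serum and hydrocortisone.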
(In general: ATP-based viability assays read luminescence as a measure of living cells.)

The term IC50 denotes the concentration at which inhibition is half-maximal. A lower IC50 goes with inhibition by little substance.

`COc1cc(Nc2ncc(Cl)c(Nc3ccc(CNS(=O)(=O)C4CC4)cc3)n2)cc(C)c1OC` [II-199, 5-Chloro-N4-[4-(N-cyclopropylsulfonylamino)methylphenyl]-N2-[3,4-dimethoxy-5-methylphenyl]-2,4-pyrimidinediamine] registered an IC50 of 57.2 nM.
Under `COc1cc(Nc2ncc(Cl)c(Nc3ccc(CNS(=O)(=O)N(C)C)cc3)n2)cc(Cl)c1OC` [II-92, 5-Chloro-N2-(3-chloro-4,5-dimethoxyphenyl)-N4-[(4-(dimethylamino)sulfonylamino)methylphenyl]-2,4-pyrimidinediamine] stands 558 nM.
Then `COc1c(C)cc(Nc2ncc(Cl)c(Nc3ccc(CNS(=O)(=O)NC4CC4)cc3)n2)cc1C` [II-154, 5-Chloro-N4-[4-((N-cyclopropylamino)sulfonylamino)methylphenyl]-N2-(3,5-dimethyl-4-methoxyphenyl)-2,4-pyrimidinediamine], with 42.9 nM; and `CCNS(=O)(=O)NCc1ccc(Nc2nc(Nc3cc(C)c(OC)c(C)c3)ncc2Cl)c(C)c1` [II-142, 5-Chloro-N2-(3,5-dimethyl-4-methoxyphenyl)-N4-[2-methyl-4-(ethylaminosulfonylamino)methylphenyl]-2,4-pyrimidinediamine], with 485 nM; and `O=S(=O)(NCc1cccc(Nc2nc(Nc3ccc(-c4cccnc4)cc3)ncc2Cl)c1)C1CC1` [II-194, 5-Chloro-N4-[3-(N-cyclopropylsulfonylamino)methylphenyl]-N2-[4-(3-pyridinyl)phenyl]-2,4-pyrimidinediamine], with 1340 nM.
The compound `CCNS(=O)(=O)NCc1ccc(Nc2nc(Nc3cc(C)c(OC)c(OC)c3)ncc2C)cc1` [II-117, N2-(3,4-Dimethoxy-5-methylphenyl)-N4-[(4-(ethylamino)sulfonylamino)methylphenyl]-5-methyl-2,4-pyrimidinediamine] registered an IC50 of 208 nM.
Under `COc1c(C)cc(Nc2ncc(Cl)c(Nc3ccc(CNS(=O)(=O)C4CC4)cc3C)n2)cc1C` [II-150, 5-Chloro-N2-(3,5-dimethyl-4-methoxyphenyl)-N4-[2-methyl-4-(N-cyclopropylsulfonylamino)methylphenyl]-2,4-pyrimidinediamine] stands 307 nM; under “5-Chloro-N4-[3,4-dihydro-1,1-dioxide-2H-1,2-benzothiazin-7-yl]-N2-[4-(N-methylpiperizin-4-yl)phenyl]-2,4-pyrimidinediamine [VII-2]”, 371 nM; under `CCc1cnc(Nc2cc(C)c(OC)c(OC)c2)nc1Nc1ccc(CNS(=O)(=O)C2CC2)cc1` [II-82, N4-[4-(N-Cyclopropylsulfonylamino)methylphenyl]-N2-(3,4-dimethoxy-5-methylphenyl)-5-ethyl-2,4-pyrimidinediamine], 797 nM.
With `COc1c(C)cc(Nc2ncc(C)c(Nc3ccc4c(c3)S(=O)(=O)NCC4)n2)cc1C` [VII-10, 5-Methyl-N4-[3,4-dihydro-1,1-dioxide-2H-1,2-benzothiazin-7-yl]-N2-[3,5-dimethyl-4-methoxyphenyl]-2,4-pyrimidinediamine], the IC50 was determined as 144 nM.
As for `COc1c(C)cc(Nc2ncc(Cl)c(Nc3ccc(CNS(=O)(=O)NC4CC4)cc3C)n2)cc1C` [II-175, 5-Chloro-N2-(3,5-dimethyl-4-methoxyphenyl)-N4-[2-methyl-4-((N-cyclopropylamino)sulfonylamino)methylphenyl]-2,4-pyrimidinediamine], the IC50 was determined as 354 nM.
Turning to `Cc1cnc(Nc2cncc(C)c2N2CCN(C)CC2)nc1Nc1ccc2c(c1)S(=O)(=O)NCC2` [VII-7, 5-Methyl-N4-[3,4-dihydro-1,1-dioxide-2H-1,2-benzothiazin-7-yl]-N2-[5-methyl-4-(N-methylpiperizin-4-yl)pyridine-3-yl]-2,4-pyrimidinediamine], the IC50 was determined as 5390 nM.
Take `CCOc1cc(C)c(Nc2ncc(C)c(Nc3ccc(CCNS(=O)(=O)C4CC4)cc3)n2)c(C)c1` [II-63]: the 50% inhibitory concentration (IC50) was determined as 530 nM.
Under “5-Chloro-N4-[3,4-dihydro-1,1-dioxide-2H-1,2-benzothiazin-7-yl]-N2-[5-methyl-4-(N-methylpiperizin-4-yl)pyridine-3-yl]-2,4-pyrimidinediamine [VII-4]” stands 558 nM; under `CCCN1CCN(c2ccc(Nc3ncc(Cl)c(Nc4ccc(CCNS(=O)(=O)C5CC5)cc4)n3)c(C(F)(F)F)c2)CC1` [II-54, 5-Chloro-N4[4-(N-cyclopropylsulfonylamino)ethylphenyl]-N2-[4-(4-propylpiperazino)-2-trifluoromethylphenyl]-2,4-pyrimidinediamine], 1970 nM.
Compound “5-Chloro-N4-[3,4-dihydro-1,1-dioxide-2H-1,2-benzothiazin-7-yl]-N2-[4-(N-methylpiperizin-4-yl)phenyl]-2,4-pyrimidinediamine [VII-5]” displayed a 50% inhibitory concentration (IC50) of 13200 nM.
Under `COc1cc(Nc2ncc(C)c(Nc3ccc(CNS(=O)(=O)NC4CC4)cc3)n2)cc(C)c1OC` [II-166, N4-[4-((N-Cyclopropylamino)sulfonylamino)methylphenyl]-N2-(3,4-dimethoxy-5-methylphenyl)-5-methyl-2,4-pyrimidinediamine] stands 247 nM; under `CCNS(=O)(=O)NCc1cccc(Nc2nc(Nc3cc(C)c(OCC)c(C)c3)ncc2C)c1` [II-134, N2-(3,5-Dimethyl-4-ethoxyphenyl)-N4-[(3-(ethylamino)sulfonylamino)methylphenyl]-5-methyl-2,4-pyrimidinediamine], 231 nM; under `COc1c(C)cc(Nc2ncc(C)c(Nc3ccc4c(c3)C(NS(=O)(=O)C3CC3)CC4)n2)cc1C` (racemic) [V-7, (+/−)-N4-[1-(Cyclopropylsulfonylamino)indan-6-yl]-N2-(3,5-dimethyl-4-methoxyphenyl)-5-methyl-2,4-pyrimidinediamine], 1600 nM.
Under `CCN1CCN(c2ccc(Nc3ncc(C)c(Nc4ccc(CNS(=O)(=O)C5CC5)cc4)n3)cc2)CC1` [II-204, 5-Methyl-N4-[4-(N-cyclopropylsulfonylamino)methylphenyl]-N2-[4-(N-ethylpiperizin-4-yl)phenyl]-2,4-pyrimidinediamine] stands 175 nM; under `Cc1cnc(Nc2ccc(C3CCN(C)CC3)cc2)nc1Nc1ccc2c(c1)C(NS(=O)(=O)C1CC1)CC2` (racemic) [V-5, (+/−)-N4-[1-(Cyclopropylsulfonylamino)indan-6-yl]-5-methyl-N2-[4-(1-methyl-4-piperidinyl)pheny]-2,4-pyrimidinediamine], 999 nM.
In turn, `Cc1cnc(Nc2ccc(C3CCN(C)CC3)cc2)nc1Nc1ccc(CNS(=O)(=O)N(C)C)cc1` [II-106, N4-[(4-(Dimethylamino)sulfonylamino)methylphenyl]-5-methyl-N2-[4-(1-methyl-4-piperidinyl)pheny]-2,4-pyrimidinediamine] returned a 50% inhibitory concentration (IC50) of 383 nM.
For the compound `CCNS(=O)(=O)NCc1ccc(Nc2nc(Nc3ccc(N4CCN(C)CC4)c(C)c3)ncc2Cl)c(C)c1` [II-145, 5-Chloro-N4-[2-methyl-4-(ethylaminosulfonylamino)methylphenyl]-N2-[3-methyl-4-(4-methyl-1-piperazinyl)phenyl]-2,4-pyrimidinediamine], the IC50 is 3980 nM.
Then `CCNS(=O)(=O)NCc1cccc(Nc2nc(Nc3ccc(N4CCN(C)CC4)c(C)c3)ncc2C)c1` [II-136, N4-[3-((Ethylamino)sulfonylamino)methylphenyl]-5-methyl-N2-[3-methyl-4-(4-methyl-1-piperazinyl)phenyl]-2,4-pyrimidinediamine], with 2140 nM.

(Values after patent publication US8304422B2, “Compositions and methods for inhibition of the JAK pathway” (Rigel Pharmaceuticals, Inc., priority 2007, dated 2012).)
